Our source for the IC50 values is patent US9550763B2, “Heterocyclic ring and carbocyclic derivative” (Shionogi & Co., Ltd., priority 2012, dated 2017).

Holding throughout (format): cell-based
Assay [1] has as its target T1, human P2X3 receptor (Homo sapiens (Human), UniProt P56373). As to the kind of experiment: Evaluation of human P2X3 receptor inhibitory activity (Test Example 1-1, FDSS 3000, 96-well, 50 nM ATP). The note with it: human P2X3 receptor in C6BU-1 cells; Test Example 1-1 (compounds I-001 to I-300). Put shortly: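 C6BU-1 cells stably expressing human P2X3, loaded with 4 μM Fluo-3-AM (pH 7.5), preincubated 5 min with compound before 50 nM ATP challenge; fluorescence followed 4 min on FDSS 3000. IC50 derived from peak/baseline fluorescence ratio, no-compound as 0% and buffer-instead-of-ATP as 100% inhibition.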

The target of another assay is Rat P2X3 receptor (Rattus norvegicus (Rat), UniProt P49654). As to the kind of experiment: Evaluation of rat P2X3 receptor inhibitory activity in the presence of rat serum albumin (RSA) (Test Example 3-2). As to conditions: rat P2X3 receptor in C6BU-1 cells. As for the experimental part: Rat P2X3 receptor gene (GenBank accession number NM_031075) was expressed in C6BU-1 cell. The C6BU-1 cells were seeded in a 96-well microtiter plate at a concentration of 2500 cells/well and cultured in the medium (7.0% fetal bovine serum, 7.0% horse serum, and 1% antibiotic and antifungal in DMEM) for one day at 37° C. under 5% carbon dioxide atmosphere. The plasmid was transfected into the cells using transfection reagent FuGENEG (Roche). The transfected cells were cultured in the medium for one day at 37° C. under 5% carbon dioxide atmosphere. The medium was replaced with 4 μM Fluo-3-AM solution (pH7.5) containing 20 mM HEPES, […], 5.27 mM KCl, 0.9 mM MgCl2, 1.26 mM CaCl2, 5.6 mM D-glucose, 2.5 mM probenecid, 1% BSA, and 0.08% Pluronic F-127, and incubated at 37° C. under 5% dioxide carbon atmosphere for one hour. The plate was washed with washing buffer (20 mM HEPES, 137 mM NaCl, 5.27 mM KCl, 0.9 mM MgCl2, 1.26 mM CaCl2, 5.6 mM D-glucose, 2.5 mM probenecid, pH7.5), and each well was added with 40 μL of this buffer. The plate was placed in High-Throughput Screening System FDSS 3000 (Hamamatsu Photonics K.K.). Measurement of fluorescence intensity by FDSS 3000 was started, and 40 μL of DMSO solutions containing 1% RSA (final concentrations) and different concentrations of the test compound as prepared by dilution with dilution buffer (20 mM HEPES, 137 mM NaCl, 5.27 mM KCl, 0.9 mM MgCl2, 1.26 mM CaCl2, 5.6 mM D-glucose, 2.5 mM probenecid, 0.1% Pluronic F-127, pH7.5) were dispensed to each well through the built-in automatic dispenser. Five minutes after, 50 nM ATP solution (50 μL) prepared by dilution with the dilution buffer was dispensed through the built-in automatic dispenser, and the measurement of fluorescence intensity was continued for 4 min. For each well, the specific maximum fluorescence intensity was calculated as the ratio of the maximum fluorescence intensity after addition of the ATP solution to the fluorescence intensity at the starting of the measurement. The 50% inhibitory concentration (IC50) was calculated under the assumption that the specific maximum fluorescence intensity without test compound is 0% inhibition and that the specific maximum fluorescence intensity when the dilution buffer was added in place of ATP solution is 100% inhibition, to evaluate the inhibitory activity of the test compound. FDSS software (Hamamatsu Photonics K.K.) was used for calculation of the specific maximum fluorescence intensity. IC50 was calculated using Microsoft Excel (Microsoft Corporation) and XLfit (idbs Ltd.).

In assay [2] the target is T1, human P2X3 receptor. As to the kind of experiment: Evaluation of human P2X3 receptor inhibitory activity (Test Example 1-2, FLIPR 384, 384-well, 150 nM ATP). Put shortly:
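Human P2X3 stably expressed in C6BU-1 cells, Fluo-3-AM loaded, read on FLIPR at pH 7.5 HEPES buffer. Compound added 5 min before 150 nM ATP; peak/baseline fluorescence over 4 min gave inhibition (buffer instead of ATP = 100%), from which IC50 was derived.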

Where [3] appears, read: human P2X3 receptor in C6BU-1 cells, Test Example 1-2 (compounds I-301 to I-483), read-out: P2X3 IC50.
The mark [4] stands for this setting: C6BU-1 cell transfected with human P2X3 receptor gene, method of Test Example 1-2 (compounds I-301 to I-483), read-out: IC50 (human P2X3 receptor inhibitory activity).

One may read the IC50 as the concentration needed to halve the response being measured.

Where only a bound is given, the exact number is not on record here.

Sequence of Rat P2X3 receptor (P49654 whole entry): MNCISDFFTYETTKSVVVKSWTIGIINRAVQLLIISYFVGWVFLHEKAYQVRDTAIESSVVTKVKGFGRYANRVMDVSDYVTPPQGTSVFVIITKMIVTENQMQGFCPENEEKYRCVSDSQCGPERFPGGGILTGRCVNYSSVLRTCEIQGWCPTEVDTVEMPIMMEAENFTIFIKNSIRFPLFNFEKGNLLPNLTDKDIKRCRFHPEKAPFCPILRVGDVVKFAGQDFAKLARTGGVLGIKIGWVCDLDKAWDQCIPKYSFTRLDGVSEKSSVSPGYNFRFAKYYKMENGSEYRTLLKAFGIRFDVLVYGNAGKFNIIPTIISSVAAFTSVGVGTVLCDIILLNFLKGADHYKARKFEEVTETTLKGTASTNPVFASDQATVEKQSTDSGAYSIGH
T1 sequence (P56373 whole entry): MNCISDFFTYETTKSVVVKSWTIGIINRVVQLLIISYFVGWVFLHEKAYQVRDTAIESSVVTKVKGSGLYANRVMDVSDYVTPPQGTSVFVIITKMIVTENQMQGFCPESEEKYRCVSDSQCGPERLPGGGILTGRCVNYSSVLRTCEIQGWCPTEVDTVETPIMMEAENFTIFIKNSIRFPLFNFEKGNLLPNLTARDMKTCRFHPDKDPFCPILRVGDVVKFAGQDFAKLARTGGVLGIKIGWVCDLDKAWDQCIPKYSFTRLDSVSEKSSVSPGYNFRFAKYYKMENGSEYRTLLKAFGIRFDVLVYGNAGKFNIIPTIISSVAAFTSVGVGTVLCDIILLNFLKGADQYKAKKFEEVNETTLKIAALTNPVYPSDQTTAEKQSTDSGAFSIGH

Turning to `Cc1ccc(Oc2ccc(Nc3nc(=O)c(C(=O)NC4CCOCC4)cn3Cc3ccc(Cl)cc3)cc2)nn1` [Compound I-159], the IC50 is 7 nM at human P2X3 receptor [1] and 23 nM on Rat P2X3 receptor.

In the case of `Cc1cc(/N=c2\[nH]cc(NC(=O)C3CCOCC3)c(=O)n2Cc2ccc(Cl)cc2)ccc1Oc1ncccc1F` [Compound I-162], the 50% inhibitory concentration (IC50) against human P2X3 receptor [1] was 3 nM; on Rat P2X3 receptor, 13 nM.

For `CCCn1c(=O)cc(Nc2ccc(Oc3cccc(C(=O)O)n3)cc2)n(Cc2ccc(Cl)cc2)c1=O` [Compound I-165], the values for the IC50 on human P2X3 receptor [1] and at Rat P2X3 receptor were 3 nM and 17 nM, respectively.

As for `O=c1c(NC(=O)[C@H]2C[C@H](O)C2)c[nH]/c(=N\c2ccc(Oc3ccc(F)cn3)cc2)n1Cc1ccc(Cl)cc1` [Compound I-215], the IC50 against human P2X3 receptor [1] is 4 nM; at Rat P2X3 receptor, 5 nM.

With `N#Cc1cnc(Oc2ccc(Nc3nc(=O)c(C(=O)NC4CCOCC4)cn3Cc3ccc(Cl)cc3)cc2)cn1` [Compound I-230], the IC50 at human P2X3 receptor [1] came to 9 nM; on Rat P2X3 receptor, 10 nM.

As to `Cc1cc(Oc2ccc(/N=c3\[nH]cc(NC(=O)C4CCOCC4)c(=O)n3Cc3ccc(Cl)cc3)cc2C)no1` [Compound I-304], the half-maximal inhibitory concentration (IC50) at human P2X3 receptor [2] (setting [3]) and at Rat P2X3 receptor was 12 nM in each case.

As for `Cc1ccc(Oc2ccc(/N=c3\[nH]cc(NC(=O)[C@H]4C[C@H](O)C4)c(=O)n3Cc3ccc(Cl)cc3)cc2)nn1` [Compound I-308], the IC50 on human P2X3 receptor [2] (setting [3]) and on Rat P2X3 receptor was 5 nM each time.

Take `CCC(=O)Nc1c[nH]/c(=N\c2ccc(Oc3ccc(C(N)=O)nn3)cc2)n(Cc2ccc(Cl)cc2)c1=O` [Compound I-309]: the IC50 at human P2X3 receptor [2] (setting [3]) came out at 9 nM; at Rat P2X3 receptor, 22 nM.

`Cc1noc(-c2c[nH]/c(=N\c3ccc(Oc4cccc(C(=O)O)n4)cc3)n(Cc3ccc(Cl)cc3)c2=O)n1` [Compound I-313]: the IC50 at human P2X3 receptor [2] (setting [3]) worked out at 5 nM; on Rat P2X3 receptor, 24 nM.

On to `Cc1nc(Nc2cc(=O)n([C@@H](C)[C@@H](C)C(=O)O)c(=O)n2Cc2ccc(Cl)cc2)ccc1Oc1ccc(F)nc1` [Compound I-339], for which the IC50 at human P2X3 receptor [2] (setting [3]) is 9 nM; at Rat P2X3 receptor it was 12 nM.

As for `O=C(O)c1cc(Oc2ccc(/N=c3\[nH]cc(Nc4ccon4)c(=O)n3Cc3ccc(Cl)cc3)cc2)ccn1` [Compound I-354], the IC50 turned out to be 7 nM at human P2X3 receptor [2] (setting [3]) and 14 nM on Rat P2X3 receptor.

Regarding `CCOC(=O)c1cn(Cc2ccc(Cl)cc2)c(Nc2ccc(Oc3ccc(F)cn3)cc2)cc1=O` [Compound I-463, 1-(4-chloro-benzyl)-2-[4-(5-fluoro-2-pyridyloxy)phenylamino]-5-(ethoxycarbonyl)pyridin-4(1H)-one], the IC50 at human P2X3 receptor [2] (setting [3]) worked out at 26 nM.

For the compound `CN(C)c1ccc(Nc2ccc(Oc3ccc(F)cn3)cc2)c(Cc2ccc(Cl)cc2)c1` [Compound I-464, 1-(4-chlorobenzyl)-3-dimethylamino-6-[4-(5-fluoro-2-pyridyloxy)phenylamino]benzene], the half-inhibitory concentration (IC50) at human P2X3 receptor [2] (setting [4]) was less than 30000 nM.

As for `COC(=O)c1cccc(Oc2ccc(Nc3ccn(C(C)C)c(=O)c3Cc3ccc(Cl)cc3)cc2)n1` [Compound I-465, 3-(4-chloro-benzyl)-1-isopropyl-4-[4-(6-methoxycarbonyl-2-pyridyloxy)phenylamino]pyridin-2(1H)-one], the IC50 on human P2X3 receptor [2] (setting [4]) was less than 30000 nM.

As for `CC(C)n1ccc(Nc2ccc(Oc3cccc(C(=O)O)n3)cc2)c(Cc2ccc(Cl)cc2)c1=O` [Compound I-466], the IC50 at human P2X3 receptor [2] (setting [3]) came out at 597 nM.

Turning to `CC(C)n1ccc(Nc2ccc(Oc3cccc(C(N)=O)n3)cc2)c(Cc2ccc(Cl)cc2)c1=O` [Compound I-467], on human P2X3 receptor [2] (setting [4]), the half-inhibitory concentration (IC50) was less than 30000 nM.

As for `CC(C)(C)c1cc(Nc2ccc(Oc3cccc(C(N)=O)n3)cc2)n(Cc2ccc(Cl)cc2)n1` [Compound I-468, 3-t-butyl-1-(4-chlorobenzyl)-5-[4-(6-carbamoyl-2-pyridyloxy)phenylamino]pyrazole], on human P2X3 receptor [2] (setting [4]), the half-inhibitory concentration (IC50) is less than 30000 nM.

As to `O=C(O)c1cccc(Oc2ccc(Nc3nc4ccccc4n3Cc3ccc(F)cc3)cc2)n1` [Compound I-470], the IC50 on human P2X3 receptor [2] (setting [4]) was less than 30000 nM.

As for `COC(=O)c1cccc(Oc2ccc(/N=c3\[nH]cc(C(F)(F)F)c(=O)n3Cc3ccc(Cl)cc3)cc2)n1` [Compound I-471], at human P2X3 receptor [2] (setting [3]), the IC50 was found to be 683 nM.

For `O=C(O)c1cccc(Oc2ccc(/N=c3\[nH]cc(C(F)(F)F)c(=O)n3Cc3ccc(Cl)cc3)cc2)n1` [Compound I-472], the IC50 at human P2X3 receptor [2] (setting [3]) stood at 15 nM.

As for `CCCn1c(=O)cc(Nc2ccc(Oc3cccc(C#N)c3)c(C)n2)n(Cc2ccc(C)cc2)c1=O` [Compound I-473], the IC50 at human P2X3 receptor [2] (setting [3]) was 29 nM.

Regarding `CCCn1c(=O)cc(Nc2ccc(Oc3cccc(C(=O)O)c3)c(C)n2)n(Cc2ccc(C)cc2)c1=O` [Compound I-474], the 50% inhibitory concentration (IC50) at human P2X3 receptor [2] (setting [3]) stood at 5 nM.

Regarding `COC(=O)c1cccc(Oc2ccc(/N=c3\[nH]cc(C4CCOCC4)c(=O)n3Cc3ccc(Cl)cc3)cc2)n1` [Compound I-476], the IC50 at human P2X3 receptor [2] (setting [3]) was found to be 66 nM.

For `CC(C)(C)c1c[nH]/c(=N\c2ccc(Oc3cccc(C(=O)O)n3)cc2)n(Cc2ccc(Cl)cc2)c1=O` [Compound I-477], on human P2X3 receptor [2] (setting [3]), the IC50 is 5 nM.

On to `O=C(O)c1cccc(Oc2ccc(/N=c3\[nH]cc(C4CCOCC4)c(=O)n3Cc3ccc(Cl)cc3)cc2)n1` [Compound I-478], for which, on human P2X3 receptor [2] (setting [3]), the concentration for half-maximal inhibition (IC50) was determined as 5 nM.

For the compound `CSc1ncc(Nc2ccc(Oc3ccc(F)cn3)cc2)c(Cc2ccc(F)cc2)n1` [Compound I-479], the IC50 at human P2X3 receptor [2] (setting [4]) was less than 30000 nM.

In the case of `O=C(O)c1cccc(Oc2ccc(/N=c3\[nH]cc(-c4ccccn4)c(=O)n3Cc3ccc(Cl)cc3)cc2)n1` [Compound I-480], the 50% inhibitory concentration (IC50) at human P2X3 receptor [2] (setting [3]) came out at 7 nM.

As for `CN(C)c1ncc(Nc2ccc(Oc3ccc(F)cn3)cc2)c(Cc2ccc(F)cc2)n1` [Compound I-481, 2-dimethylamino-4-(4-fluorobenzyl)-5-[4-(5-fluoro-2-pyridyloxy)phenylamino]pyrimidine], the IC50 on human P2X3 receptor [2] (setting [4]) was less than 30000 nM.

Take `CC(C)(C)c1c[nH]/c(=N\c2ccc(Oc3cccc(C(N)=O)n3)cc2)n(Cc2ccc(Cl)cc2)c1=O` [Compound I-482]: at human P2X3 receptor [2] (setting [3]), the 50% inhibitory concentration (IC50) is 251 nM.

As for `NC(=O)c1cccc(Oc2ccc(/N=c3\[nH]cc(C4CCOCC4)c(=O)n3Cc3ccc(Cl)cc3)cc2)n1` [Compound I-483], on human P2X3 receptor [2] (setting [3]), the half-maximal inhibitory concentration (IC50) was 17 nM.
